In patent US4190657A, “Naphthyridine derivatives” (Synthelabo, priority 1976, dated 1980):
Read-outs that look alike come from different tables or passages of the source.

Key:
[1] = tested on: mice of the CD 1 strain; test: anoxia due to pressure reduction, survival time, mean active dose (MAD); format: in vivo, mice (CD 1 strain); conditions: mice CD 1, intraperitoneal, 10 minutes before the experiment, 190 mm of mercury, Table II; for ED (100% increase in survival time): Mus musculus, ip, read-out: ANOXIA DUE TO PRESSURE REDUCTION, mean active dose (MAD), dose which increases the survival time by 100%
Procedure: Mice of the CD 1 strain are kept in an atmosphere depleted in oxygen, by setting up a partial vacuum (190 mm. of mercury, corresponding to 5.25% of oxygen).
The survival time of the animals is noted. This time is increased by the agents capable of favouring oxygenation in the tissues and, in particular, in the brain. The compounds studied are administered intraperitoneally in several doses 10 minutes before the experiment. The percentage increases of the survival time relative to the values obtained with control animals are calculated. The mean active dose (MAD), namely the dose which increases the survival time by 100%, is determined graphically.
The results are indicated in Table II below for a representative number of compounds.

[2] = acute toxicity, 50 percent lethal dose (LD50), graphical method; format: in vivo; conditions: mouse, in vivo, ip, mice CD 1, intraperitoneal; Table II; read-out: ACUTE TOXICITY LD50 for intraperitoneal administration
Procedure: (§1) The 50 percent lethal dose (LD50) of the compounds is determined for mice of strain CD 1 by a graphical method.
(§2) The results are indicated in Table II below, for a representative number of compounds.

[3] = as above; conditions: mouse, in vivo, Table III
[4] = tested on: curarised rats ("sleep" induced by sodium 4-hydroxy-butyrate); test: action on the duration of the "sleep" induced by sodium 4-hydroxy-butyrate (GHB) in curarised rats; format: in vivo, rats (male, Charles River strain); conditions: for TOTAL DURATION of the "sleep" / change in vivo at 10 mg/kg / change in vivo at 30 mg/kg: GHB 200 mg/kg i.v.; for TOTAL DURATION of the "sleep": over 75 minutes, comparison 54.12 ± 2.07; for change in vivo at 10 mg/kg / change in vivo at 30 mg/kg: read-out: DIFFERENCE IN % RELATIVE TO THE CONTROLS (total duration of the "sleep")
Procedure: This action was determined from the influence of the compounds on the duration of the "sleep" induced by sodium 4-hydroxy-butyrate (GHB) in curarised rats.
The animals used are male rats of the Charles River strain, weighing 200±20 g. The animals, curarised by alloferin given intraperitoneally at the rate of 1 mg/kg, are placed under artificial respiration by means of a mask applied over the snout (respiration frequency: 40/minute; volume respired: 14 cc). The oesophagus is ligatured beforehand so as to avoid air entering the stomach.
Fronto-parietal and occipital cortical electrodes make it possible to record the electrocorticographic activity on a Grass model 79P polygraph at a speed of 6 mm/sec. The animals are prepared under local anaesthesia (2% xylocaine). The rats are kept at a constant temperature (37.5° C.) throughout the experiment. Ten minutes after the end of the preparation of the rat, a dose of 200 mg/kg of Na 4-hydroxybutyrate is injected intravenously into the tail. […]
The traces are evaluated for periods of 15 minutes over the course of 75 minutes after the injection of "GHB". During this period of analysis, the total duration of the "sleep" is determined. A series of 15 comparisons makes it possible precisely to define the duration of the "GHB sleep".
The statistical analysis of the results is carried out with the aid of the Mann-Whitney "U" test.

[5] = tested on: mice of strain CD 1; test: acute toxicity, 50 percent lethal dose (LD50), graphical method; format: in vivo; conditions: mice CD 1, intraperitoneal; Table II
Procedure: as §1, §2

[6] = ip, intraperitoneal, read-out: TOXICITY intraperitoneal
[7] = Rattus norvegicus, ip, 1.25 h, read-out: […] % RELATIVE TO THE CONTROLS (total duration of the "sleep"), 10 mg/kg intraperitoneally
[8] = Rattus norvegicus, ip, 1.25 h, read-out: […] % RELATIVE TO THE CONTROLS (total duration of the "sleep"), 30 mg/kg intraperitoneally
[9] = iv, read-out: TOXICITY intravenous
[10] = Rattus norvegicus, ip, 1.25 h, 30 mg/kg intraperitoneally
[11] = Rattus norvegicus, ip, 1.25 h, 10 mg/kg intraperitoneally

| SMILES | ED (100% increase in survival time) [1] [mg/kg] | LD50 [2] [mg/kg] | LD50 [3, 6] [mg/kg] | TOTAL DURATION of the "sleep" ([4]; 30 mg/kg intraperitoneally) [minutes. seconds] | further results |
| --- | --- | --- | --- | --- | --- |
| CCN1CCc2c3n(c4ccccc24)C(=O)CCC31 (stereo not shown) [Compound 3] | 9 | 58 |  |  |  |
| CCN1CCc2c3n(c4ccccc24)C(C)(O)CCC31 (stereo not shown) [Compound 21] | 7 | 75 |  |  |  |
| CC(=O)CN1CCc2c3n(c4ccccc24)C(=O)CCC31 (stereo not shown) [Compound 62] | 10 | 190 |  |  |  |
| COC(=O)[C@@H]1CC(=O)n2c3c(c4ccccc42)CCN(CCC(C)=O)[C@@H]31 (relative stereo) [Compound 49 m.s.cis] |  |  | 600 | 38.51 ± 3.12 | TOTAL DURATION of the "sleep" ([4]; 10 mg/kg intraperitoneally): 35.22 ± 2.26 minutes. seconds; change in vivo at 10 mg/kg [4, 7]: -35%; change in vivo at 30 mg/kg [4, 8]: -28% |
| COC(=O)[C@@H]1CC(=O)n2c3c(c4cc(Cl)ccc42)CCN[C@H]31 (relative stereo) [Compound 58 trans-isomer] |  |  | 170 | 31.12 ± 2.18 | change in vivo at 30 mg/kg [4, 8]: -42% |
| CCCN1CCc2c3n(c4ccccc24)C(C)(O)CCC31 (stereo not shown) [Compound 22] | 8 | 105 |  |  |  |
| CC(O)CN1CCc2c3n(c4ccccc24)C(=O)CCC31 (single isomer, unassigned) [Compound 63 isomer A] |  |  | 125 | 34.52 ± 2.14 | LD50 [3, 9]: 75 mg/kg; change in vivo at 30 mg/kg [4, 10]: -36% |
| COC(=O)[C@@H]1CC(=O)n2c3c(c4cc(Cl)ccc42)CCN[C@@H]31 (relative stereo) [Compound 58 cis-isomer] |  |  | 190 | 36.08 ± 2.47 | change in vivo at 30 mg/kg [4, 8]: -33% |
| COC(=O)[C@@H]1CC(=O)n2c3c(c4cc(F)ccc42)CCN(C)[C@@H]31 (relative stereo) [Compound 60 cis-isomer] |  |  | 725 |  | TOTAL DURATION of the "sleep" ([4]; 10 mg/kg intraperitoneally): 34.22 ± 2.47 minutes. seconds; change in vivo at 10 mg/kg [4, 7]: -37% |
| COC(=O)[C@@H]1CC(=O)n2c3c(c4ccccc42)CCN(C)[C@@H]31 (relative stereo) [1 (m.s.cis), Methyl 1,2,3,3a,4,5-hexahydro-3-methyl-6-oxo-6H-indolo[3,2,1-de][1,5]naphthyridine-4-carboxylate] | 4 | 170 |  |  |  |
| O=C1CCC2NCCc3c2n1c1ccc(Cl)cc31 (stereo not shown) [Compound 52] | 9.5 | 165 |  | 32.35 ± 5.02 | LD50 [3, 9]: 110 mg/kg; TOTAL DURATION of the "sleep" ([4]; 10 mg/kg intraperitoneally): 37.34 ± 3.35 minutes. seconds; change in vivo at 10 mg/kg [4, 11]: -31%; change in vivo at 30 mg/kg [4, 10]: -40% |
| CN1CCc2c3n(c4ccc(Cl)cc24)C(=O)CCC31 (stereo not shown) [Compound 53] | 8 | 150 |  |  |  |
| O=C1CCC2NCCc3c2n1c1cccc(Cl)c31 (stereo not shown) [Compound 65] |  |  | 54 |  | TOTAL DURATION of the "sleep" ([4]; 10 mg/kg intraperitoneally): 34.51 ± 1.42 minutes. seconds; change in vivo at 10 mg/kg [4, 11]: -36% |
| COC(=O)C1CC(=O)n2c3c(c4cc(Cl)ccc42)CCNC31 (stereo not shown) [Compound 51] |  |  | 760 | 37.51 ± 2.12 | change in vivo at 30 mg/kg [4, 8]: -30% |
| COC(=O)[C@@H]1CC(=O)n2c3c(c4ccccc42)CCN(C)[C@H]31 (relative stereo) [Compound 1 trans m.s., Methyl 1,2,3,3a,4,5-hexahydro-3-methyl-6-oxo-6H-indolo[3,2,1-de][1,5]naphthyridine-4-carboxylate] |  |  | 185 |  | LD50 ([3]; intravenous, read-out: TOXICITY intravenous): 47 mg/kg; TOTAL DURATION of the "sleep" ([4]; 40 mg/kg intraperitoneally): 32.01 ± 2.59 minutes. seconds; change in vivo at 40 mg/kg ([4]; Rattus norvegicus, ip, 1.25 h, read-out: […] % RELATIVE TO THE CONTROLS (total duration of the "sleep")): -41% |
| CCOC(=O)[C@@H]1CC(=O)n2c3c(c4ccccc42)CCN(C)[C@@H]31 (relative stereo) [30 (m.s.)] | 9 | 110 |  |  |  |
| CC(=O)CCN1CCc2c3n(c4ccc(Cl)cc24)C(=O)CCC31 (stereo not shown) [Compound 56] |  |  | 575 | 30.39 ± 3.01 | TOTAL DURATION of the "sleep" ([4]; 10 mg/kg intraperitoneally): 43.07 ± 3.26 minutes. seconds; change in vivo at 10 mg/kg [4, 11]: -20%; change in vivo at 30 mg/kg [4, 10]: -43% |
| COC(=O)CCN1CCc2c3n(c4ccccc24)C(=O)CCC31 (stereo not shown) [Compound 19] |  |  | 680 | 38.59 ± 1.20 | LD50 [3, 9]: 103 mg/kg; change in vivo at 30 mg/kg [4, 10]: -28% |
| CC(O)CCN1CCc2c3n(c4ccccc24)C(=O)CCC31 (single isomer, unassigned) [35 (base, isomer A)] | 9 | 150 |  |  |  |
| Cc1ccc2c3c4n(c2c1)C(=O)CCC4N(C)CC3 (stereo not shown) [Compound 69] |  |  | 88 |  | TOTAL DURATION of the "sleep" ([4]; 10 mg/kg intraperitoneally): 29.46 ± 1.27 minutes. seconds; change in vivo at 10 mg/kg [4, 11]: -45% |
| CCN1CCc2c3n(c4ccccc24)C(C)=CCC31 (stereo not shown) [Compound 26] | 10 | 67 |  |  |  |
| CN1CCc2c3n(c4ccccc24)C(=O)CCC31 (stereo not shown) [2 (m.s.), 1,2,3,3a,4,5-Hexahydro-3-methyl-6H-indolo[3,2,1-de][1,5]naphthyridin-6-one] |  |  |  |  | ANOXIA DUE TO PRESSURE REDUCTION, mean active dose (MAD), dose which increases the survival time by 100% [1]: 4.5; ACUTE TOXICITY LD50 for intraperitoneal administration [5]: 52 mg/kg |
| O=C1CCC2NCCc3c2n1c1ccc(F)cc31 (stereo not shown) [Compound 54] |  |  | 100 | 28.28 ± 4.28 | TOTAL DURATION of the "sleep" ([4]; 10 mg/kg intraperitoneally): 40.01 ± 5.00 minutes. seconds; change in vivo at 10 mg/kg [4, 11]: -26%; change in vivo at 30 mg/kg [4, 10]: -47% |
| CC(=O)CCN1CCc2c3n(c4ccccc24)C(=O)CCC31 (stereo not shown) [Compound 33] | 8 | 170 |  |  |  |
| CCN1CCc2c3n(c4ccccc24)C(C)CCC31 (stereo not shown) [28 (m.s.)] | 4.5 | 40 |  |  |  |
| Cc1ccc2c(c1)c1c3n2C(=O)CCC3NCC1 (stereo not shown) [Compound 11] |  |  | 155 | 34.08 ± 1.21 | LD50 [3, 9]: 105 mg/kg; change in vivo at 30 mg/kg [4, 10]: -37% |
| CN1CCc2c3n(c4ccccc24)C(=O)CCC31 (stereo not shown) [Compound 2 (base), 1,2,3,3a,4,5-Hexahydro-3-methyl-6H-indolo[3,2,1-de][1,5]naphthyridin-6-one] | 6 | 85 |  |  |  |
| CC1=CCC2c3c(c4ccccc4n31)CCN2C (stereo not shown) [Compound 9, 1,2,3,3a-Tetrahydro-3,6-dimethyl-4H-indolo[3,2,1-de][1,5]naphthyridine] | 6.5 | 78 |  |  |  |
| CC1CCC2c3c(c4ccccc4n31)CCN2C (stereo not shown) [Compound 10] | 6.5 | 50 |  |  |  |
| COc1ccc2c(c1)c1c3n2C(=O)CCC3N(C)CC1 (stereo not shown) [Compound 38] | 8 | 65 |  |  |  |
